Source: EP4782434A1, “N-SULFONYL CARBOXAMIDE COMPOUND, AND PREPARATION METHOD THEREFOR AND USE THEREOF” (Nutshell Therapeutics (Shanghai) Co., Ltd., priority 2023, dated 2025)

Key:
Polθ ATPase = target: T1, Polθ ATPase (Homo sapiens, UniProt O75417); test: Polθ ATPase activity assay (ADP-Glo Kinase Assay kit); format: biochemical; conditions: truncated POLQ-N protein (aa 1-894) 1 nM, 50 nM ssDNA, 50 µM ATP
T1 construct: purified truncated POLQ-N protein (aa 1-894, N-terminal 6-His tag); 6-His (N)
Procedure: The inhibitory efficiency of the compounds of formula (I) against Polθ ATPase activity was determined using the ADP-Glo Kinase Assay kit (Promega, V9101). […] The starting (final) concentration was 100 nM, followed by a 3-fold serial dilution for a total of 10 concentration points in duplicate (n=2). 5 μL of purified […], N-terminal 6-His tag) was added to each well. After centrifugation at 1000 rpm for 1 minute, the plate was incubated at 25°C for 10 minutes. 5 μL of substrate reaction solution (containing ATP & ssDNA) was added to each well, and the reaction was carried out at 25°C for 60 minutes. 5 μL of ADP-Glo Reagent was added to each well. After centrifugation at 1000 rpm for 1 minute, the plate was incubated at 25°C for 40 minutes. 10 μL of detection solution was added to each well. After centrifugation at 1000 rpm for 1 minute, the plate was incubated at 25°C for 40 minutes. Luminescence signals were recorded using a microplate reader (BMG, PHERAstar FSX). The final reaction system contained 1 nM of POLQ-N enzyme; 50 nM of ssDNA ([NT]); 50 μM of ATP; and 1% DMSO. The inhibition percentage (%) of the compound at each concentration was calculated using the RFU values normalized against the control wells within each assay plate. Table 1: Inhibitory activity of compounds against Polθ ATPase

DLD-1 BRCA2-/- cells = test: DLD-1 BRCA2-/- cell proliferation assay (CellTiter-Glo, 10 days incubation); format: cell-based; conditions: Homo sapiens, 240 h, DLD-1 BRCA2-/- cell line, total incubation period of 10 days, read-out: DLD1 BRCA2^-/- IC50
From the text: The anti-proliferative effect of the compounds on the human colorectal adenocarcinoma cell line DLD-1 BRCA2^-/- method.
• DLD-1 (purchased from ATCC, Cat. No.: CCL-221, Batch No.: 70033255); • RPMI1640 (purchased from Invitrogen, Cat. No.: 11875-085); • 0.25% Trypsin-EDTA (purchased from Invitrogen, Cat. No.: 25200-072); • Penicillin-Streptomycin solution (purchased from Hyclone, Cat. No.: SV30010); • FBS (purchased from BI, Cat. No.: 04-002-1A); • DMSO (purchased from Sigma, Cat. No.: D4540-1L); • 96-well plate (purchased from Corning, Cat. No.: CLS3903); • CellTiter-Glo reagent (purchased from Promega, Cat. No.: G7558).
The anti-proliferative effect of the compounds on a human colorectal adenocarcinoma cell line was evaluated using an ATP quantification method, wherein the measured activity correlates well with the number of viable cells. The genetically edited cell line DLD-1 BRCA2^-/- was cultured in RPMI 1640 medium (Invitrogen, 11875-085) supplemented with 10% (v/v) fetal bovine serum (BI, 04-002-1A). The cell line was cultured according to the standard instructions of the American Type Culture Collection (ATCC) and identified via short tandem repeat (STR) genotyping.
In the proliferation assay, cells were harvested and resuspended in cell culture medium. Cell density was determined using a cell counter. An appropriate volume of cell suspension was aspirated from the centrifuge tube to prepare a plating working solution (150 cells/100 µL for the DLD-1 BRCA2^-/- cell line). 100 µL of the cell suspension was seeded into each well of a 96-well plate (Corning, 3603) and incubated overnight in an incubator. The diluted test compound solutions were added to the wells. On the fourth and seventh days of compound incubation, the medium was replaced with fresh culture medium, and the compounds were re-administered, for a total incubation period of 10 days. Following incubation, the cell culture plates were removed and equilibrated to room temperature. 100 µL of CellTiter-Glo (Promega, G7558) was added to each well, and the plate was incubated at room temperature for 30 minutes. Data were read using a microplate reader (PerkinElmer, Enspire) in 96-well luminescence mode. Data analysis, curve fitting, and reporting were performed using the dose-response one-site 205 model of IDBS XL fit. Table 2: Proliferation inhibitory activity of compounds against DLD-1 BRCA2-/- cells

[1] = tested on: Theta-mediated end joining (TMEJ) process in HEK293T cells; test: TMEJ reporter assay (NanoGlo luciferase); format: cell-based; conditions: Homo sapiens, HEK-293T, HEK293T cells electroporated with TMEJ substrate, 24 hours
Procedure: The inhibitory effect of the compounds on the Theta-mediated end joining (TMEJ) process was evaluated.
(1) HEK293T cells were cultured in DMEM supplemented with 10% heat-inactivated fetal bovine serum (FBS) and 1% penicillin-streptomycin (PS). (2) Prior to startup, the Neon transfection system was disinfected, and E2 and R buffers were equilibrated to room temperature. (3) Culture medium without antibiotics was pre-warmed. (4) Cells in the flask reaching 80-90% confluency were trypsinized, neutralized with culture medium, centrifuged, and counted. (5) For transfection using a 100 µL electroporation tip, 2 × 10^6 cells were taken, washed once with DPBS (without Mg^2+ and Ca^2+), centrifuged at 1000 rpm for 5 min, and the supernatant was discarded. The number of cells and volume may be increased as required. (6) The Neon system was set up; a Neon tube was inserted into the Neon pipette and E2 buffer was added. (7) 10 µg of TMEJ substrate was added to 100 µL of R solution; the volume may be increased as required. (8) Cells were resuspended in DNA buffer, and electroporation was initiated according to the following parameters:
(9) The cells were loaded into antibiotic-free culture medium and mixed gently. (10) Steps (8)-(9) were repeated as necessary, and cells were seeded into 384-well plates at a density of 40,000 cells/well in 40 µL of culture medium. (11) The plates were incubated in a humidified CO2 incubator at 37°C for 24 hours. (12) NanoGlo reagent was warmed to room temperature, and NanoGlo buffer was mixed with the substrate at a ratio of 50:1. (13) The cell culture plates were equilibrated at room temperature for 10 minutes. (14) 40 µL of NanoGlo substrate buffer was added to each well, followed by shaking at 300 rpm for 3 minutes protected from light. (15) Signals were read via a BMG PHERAstar FSX.

T1 sequence (O75417 1-894): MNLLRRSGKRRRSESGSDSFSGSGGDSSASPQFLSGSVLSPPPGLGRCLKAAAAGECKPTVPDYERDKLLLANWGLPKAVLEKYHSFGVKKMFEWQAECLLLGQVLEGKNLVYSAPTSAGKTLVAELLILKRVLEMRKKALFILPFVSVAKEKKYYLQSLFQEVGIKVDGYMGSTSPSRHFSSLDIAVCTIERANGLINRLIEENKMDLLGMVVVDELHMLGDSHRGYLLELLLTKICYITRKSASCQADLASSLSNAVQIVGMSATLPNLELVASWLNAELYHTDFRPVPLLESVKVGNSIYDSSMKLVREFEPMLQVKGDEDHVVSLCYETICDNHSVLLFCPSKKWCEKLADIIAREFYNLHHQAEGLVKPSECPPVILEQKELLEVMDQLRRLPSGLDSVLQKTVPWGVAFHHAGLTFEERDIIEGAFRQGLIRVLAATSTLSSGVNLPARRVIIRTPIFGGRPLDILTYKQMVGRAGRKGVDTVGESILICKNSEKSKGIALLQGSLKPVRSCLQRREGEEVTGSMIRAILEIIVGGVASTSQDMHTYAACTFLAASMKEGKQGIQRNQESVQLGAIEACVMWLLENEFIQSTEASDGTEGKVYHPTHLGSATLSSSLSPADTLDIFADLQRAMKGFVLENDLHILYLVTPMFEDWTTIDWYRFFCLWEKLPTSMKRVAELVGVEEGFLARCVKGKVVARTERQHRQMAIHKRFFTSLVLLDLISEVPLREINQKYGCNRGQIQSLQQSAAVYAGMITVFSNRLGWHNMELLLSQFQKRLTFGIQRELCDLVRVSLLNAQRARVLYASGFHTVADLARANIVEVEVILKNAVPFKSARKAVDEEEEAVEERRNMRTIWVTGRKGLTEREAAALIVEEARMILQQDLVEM

| IC50 (Polθ ATPase; class symbols) [nM] | IC50 (Polθ ATPase; specific values) [nM] | IC50 (DLD-1 BRCA2-/- cells) [nM] | Structure (SMILES) | IC50 [1] [nM] |
| --- | --- | --- | --- | --- |
| ≤ 2 | 1.4 | 16 | [2H]C([2H])([2H])O[C@@H](C)c1ccc(CS(=O)(=O)NC(=O)c2ccc(C([2H])([2H])[2H])cc2-c2cc(Cl)ncc2OC)cc1 [cpd-17, (S)-2-(2-Chloro-5-methoxypyridin-4-yl)-N-((4-(1-(methoxy-d3)ethyl)benzyl)sulfonyl)-4-(methyl-d3)benzamide] | 1.8 |
| 2 to 10 | 2.2 | 21 | COc1cnc(Cl)cc1-c1cc(C)ncc1C(=O)Nc1nnc(OC[C@H]2COCCO2)s1 [Ref. 1, reference compound] | 5 |
| ≤ 2 | 0.39 | 24 | [2H]C([2H])([2H])O[C@@H](C)c1ccc(CS(=O)(=O)NC(=O)c2ccc(C([2H])([2H])[2H])cc2-c2cc(C(F)F)ncc2OC)cc1 [cpd-16, (S)-2-(2-(Difluoromethyl)-5-methoxypyridin-4-yl)-N-((4-(1-(methoxy-d3)ethyl)benzyl)sulfonyl)-4-(methyl-d3)benzamide] | 2 |
